Experimental data from article PMC9574929, “Development of Hydrogen Sulfide-Releasing Carbonic Anhydrases IX- and XII-Selective Inhibitors with Enhanced Antihyperalgesic Action in a Rat Model of Arthritis” (Journal of Medicinal Chemistry, 2022).
pKi: −log10 of the molar value.

Assays:
hCA II = hCA II (Homo sapiens, UniProt P00918); assay: Stopped-flow CO2 hydrase assay, hCA II; settings: for SI CA I/II: selectivity index, ratio of KIs
Description: (§1) The uncatalyzed rates were determined in the same manner and subtracted from the total observed rates. Stock solutions of inhibitor (0.1 mM) were prepared in distilled-deionized water and dilutions up to 0.01 nM were done thereafter with the assay buffer. […] The inhibition constants were obtained by nonlinear least-squares methods using PRISM 3 and the Cheng–Prusoff equation, as reported earlier,[39] and represent the mean from at least three different determinations.

hCA IX = hCA IX (Homo sapiens, UniProt Q16790); assay: Stopped-flow CO2 hydrase assay, hCA IX; settings: for SI CA I/IX / SI CA II/IX: selectivity index, ratio of KIs
Description: as §1

hCA I = hCA I (Homo sapiens, UniProt P00915); assay: Stopped-flow CO2 hydrase assay, hCA I
Chain of hCA I (P00915 whole entry): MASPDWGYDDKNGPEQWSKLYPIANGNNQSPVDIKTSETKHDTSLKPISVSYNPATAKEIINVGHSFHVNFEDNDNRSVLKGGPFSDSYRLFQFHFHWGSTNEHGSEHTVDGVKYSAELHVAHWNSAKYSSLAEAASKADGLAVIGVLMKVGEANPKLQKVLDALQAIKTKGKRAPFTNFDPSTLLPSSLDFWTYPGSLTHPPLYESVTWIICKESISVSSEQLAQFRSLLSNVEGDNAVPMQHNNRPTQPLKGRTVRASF
Description: as §1

hCA XII = hCA XII (Homo sapiens, UniProt O43570); assay: Stopped-flow CO2 hydrase assay, hCA XII; settings: for SI CA I/XII / SI CA II/XII: selectivity index, ratio of KIs
Chain of hCA XII (O43570 25-354): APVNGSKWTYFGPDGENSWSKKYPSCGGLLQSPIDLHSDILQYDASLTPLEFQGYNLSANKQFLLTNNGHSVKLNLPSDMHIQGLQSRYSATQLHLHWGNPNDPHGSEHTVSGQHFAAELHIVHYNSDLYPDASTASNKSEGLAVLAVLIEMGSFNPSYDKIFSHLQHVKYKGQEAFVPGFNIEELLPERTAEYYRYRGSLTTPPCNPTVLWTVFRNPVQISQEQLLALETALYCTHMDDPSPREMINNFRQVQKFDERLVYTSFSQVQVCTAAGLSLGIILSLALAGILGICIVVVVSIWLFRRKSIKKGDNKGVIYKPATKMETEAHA
Description: as §1

hCA IV = hCA IV (Homo sapiens, UniProt P22748); assay: Stopped-flow CO2 hydrase assay, hCA IV; settings: for SI CA I/IV / SI CA II/IV: selectivity index, ratio of KIs
Chain of hCA IV (P22748 19-312): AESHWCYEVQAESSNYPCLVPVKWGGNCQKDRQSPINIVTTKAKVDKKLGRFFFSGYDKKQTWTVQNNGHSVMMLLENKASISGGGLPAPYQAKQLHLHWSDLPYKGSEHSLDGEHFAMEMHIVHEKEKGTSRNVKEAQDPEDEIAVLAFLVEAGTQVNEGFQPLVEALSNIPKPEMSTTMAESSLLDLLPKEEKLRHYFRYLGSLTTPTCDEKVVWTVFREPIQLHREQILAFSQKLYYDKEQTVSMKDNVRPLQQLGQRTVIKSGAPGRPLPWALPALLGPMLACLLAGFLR
Description: as §1

Row | Compound | pKi (hCA II) | SI CA I/II (hCA II) | pKi (hCA IX) | SI CA I/IX (hCA IX) | SI CA II/IX (hCA IX) | pKi (hCA I) | pKi (hCA XII) | SI CA I/XII (hCA XII) | SI CA II/XII (hCA XII) | pKi (hCA IV) | SI CA I/IV (hCA IV) | SI CA II/IV (hCA IV) | melting point
1 | NS(=O)(=O)c1ccc(CCNCc2ccc(Cl)cc2)cc1 [Compound 6, 4-(2-((4-Chlorobenzyl)amino)ethyl)benzenesulfonamide] | 6.94 | 1.2 | 7.17 | 2.0 | 1.7 | 6.87 | 7.12 | 1.8 | 1.5 | 5.43 | 0.04 | 0.03 | 
2 | NS(=O)(=O)c1ccc(CCNCc2ccc(Br)cc2)cc1 [Compound 7, 4-(2-((4-Bromobenzyl)amino)ethyl)benzenesulfonamide] | 6.72 | 1.1 | 7.06 | 2.5 | 2.2 | 6.67 | 7.08 | 2.6 | 2.3 | 5.28 | 0.04 | 0.04 | 
3 | N#Cc1ccc(CNCCc2ccc(S(N)(=O)=O)cc2)cc1 [Compound 8, 4-(2-((4-Cyanobenzyl)amino)ethyl)benzenesulfonamide] | 7.15 |  |  |  |  | 7.04 | 7.28 |  |  | 5.75 |  |  | 
4 | CN(C)c1ccc(CNCCc2ccc(S(N)(=O)=O)cc2)cc1 [Compound 9, 4-(2-((4-(Dimethylamino)benzyl)amino)ethyl)benzenesulfonamide] |  |  |  |  |  |  |  |  |  | 6.02 |  |  | 
5 | COc1cc([N+](=O)[O-])ccc1CNCCc1ccc(S(N)(=O)=O)cc1 [Compound 11, 4-(2-((2-Methoxy-4-nitrobenzyl)amino)ethyl)benzenesulfonamide] |  |  |  |  |  | 6.84 |  |  |  | 5.73 |  |  | 
6 | COc1ccc(CNCCc2ccc(S(N)(=O)=O)cc2)cc1 [Compound 12, 4-(2-((4-Methoxybenzyl)amino)ethyl)benzenesulfonamide] |  |  |  |  |  | 7.01 | 7.24 |  |  | 5.84 |  |  | 
7 | COc1ccc(CNCCc2ccc(S(N)(=O)=O)cc2)cc1OC [Compound 13, 4-(2-((3,4-Dimethoxybenzyl)amino)ethyl)benzenesulfonamide] | 7.12 | 1.2 | 6.99 | 0.9 | 0.7 | 7.05 | 7.29 | 0.9 | 1.5 | 5.96 |  | 0.07 | 
8 | CSc1ccc(CNCCc2ccc(S(N)(=O)=O)cc2)cc1 [Compound 14, 4-(2-((4-(Methylthio)benzyl)amino)ethyl)benzenesulfonamide] |  |  | 6.95 |  |  | 6.91 | 7.05 |  |  | 5.67 |  |  | 
9 | NS(=O)(=O)c1ccc(CCNCc2csc3ccccc23)cc1 [Compound 16, 4-(2-((Benzo[b]thiophen-3-ylmethyl)amino)ethyl)benzenesulfonamide] | 6.70 | 1.9 | 7.15 | 5.3 | 2.8 | 6.43 | 7.16 | 5.3 | 2.8 | 5.14 | 0.05 | 0.03 | 
10 | NS(=O)(=O)c1ccc(CCN(Cc2ccccc2)C(=O)c2ccc(-c3cssc3=S)cc2)cc1 [Compound 19, N-Benzyl-N-(4-sulfamoylphenethyl)-4-(3-thioxo-3H-1,2-dithiol-4-yl)benzamide] |  |  |  | 19.2 | 11.1 | 6.05 to 6.11 |  | 79.4 | 49.5 |  | 0.18 | 0.11 | 139 to 140 °C
11 | NS(=O)(=O)c1ccc(CCN(Cc2ccc(F)cc2)C(=O)c2ccc(-c3cssc3=S)cc2)cc1 [Compound 20, N-(4-Fluorobenzyl)-N-(4-sulfamoylphenethyl)-4-(3-thioxo-3H-1,2-dithiol-4-yl)benzamide] |  |  |  | 115 | 13.0 |  |  | 81.5 | 9.2 |  | <0.53 | <0.06 | 158 to 159 °C
12 | NS(=O)(=O)c1ccc(CCN(Cc2ccc(Cl)cc2)C(=O)c2ccc(-c3cssc3=S)cc2)cc1 [Compound 21, N-(4-Chlorobenzyl)-N-(4-sulfamoylphenethyl)-4-(3-thioxo-3H-1,2-dithiol-4-yl)benzamide] |  |  |  | 229 | 124 |  |  | 561 | 303 |  | 12.8 | 6.9 | 104 to 105 °C
13 | NS(=O)(=O)c1ccc(CCN(Cc2ccc(Br)cc2)C(=O)c2ccc(-c3cssc3=S)cc2)cc1 [Compound 22, N-(4-Bromobenzyl)-N-(4-sulfamoylphenethyl)-4-(3-thioxo-3H-1,2-dithiol-4-yl)benzamide] |  |  |  | 403 | 192 |  |  | 597 | 284 |  | 7.4 | 3.5 | 65 to 66 °C
14 | N#Cc1ccc(CN(CCc2ccc(S(N)(=O)=O)cc2)C(=O)c2ccc(-c3cssc3=S)cc2)cc1 [Compound 23, N-(4-Cyanobenzyl)-N-(4-sulfamoylphenethyl)-4-(3-thioxo-3H-1,2-dithiol-4-yl)benzamide] |  |  |  | >248 | 120 |  |  | >1136 | 548 |  | >216.4 | 104 | 251 to 252 °C
15 | CN(C)c1ccc(CN(CCc2ccc(S(N)(=O)=O)cc2)C(=O)c2ccc(-c3cssc3=S)cc2)cc1 [Compound 24, N-(4-(Dimethylamino)benzyl)-N-(4-sulfamoylphenethyl)-4-(3-thioxo-3H-1,2-dithiol-4-yl)benzamide] |  |  |  | 188 | 43.9 |  |  | 448 | 105 |  | 1.2 | 0.3 | 185 to 186 °C
16 | NS(=O)(=O)c1ccc(CCN(Cc2ccc([N+](=O)[O-])cc2)C(=O)c2ccc(-c3cssc3=S)cc2)cc1 [Compound 25, N-(4-Nitrobenzyl)-N-(4-sulfamoylphenethyl)-4-(3-thioxo-3H-1,2-dithiol-4-yl)benzamide] |  |  |  | 204 | 25.1 |  |  | 226 | 27.9 |  | <0.7 | <0.09 | 223 to 224 °C
17 | COc1ccc(CN(CCc2ccc(S(N)(=O)=O)cc2)C(=O)c2ccc(-c3cssc3=S)cc2)cc1 [Compound 27, N-(4-Methoxybenzyl)-N-(4-sulfamoylphenethyl)-4-(3-thioxo-3H-1,2-dithiol-4-yl)benzamide] |  |  |  | 44.0 | 11.7 |  |  | 29.0 | 7.7 |  | 1.4 | 0.4 | 151 to 152 °C
18 | COc1ccc(CN(CCc2ccc(S(N)(=O)=O)cc2)C(=O)c2ccc(-c3cssc3=S)cc2)cc1OC [Compound 28, N-(3,4-Dimethoxybenzyl)-N-(4-sulfamoylphenethyl)-4-(3-thioxo-3H-1,2-dithiol-4-yl)benzamide] |  |  |  | 47.9 | 11.7 | 6.05 to 6.11 |  | 105 | 25.7 |  | 3.0 | 0.7 | 183 to 184 °C
19 | NS(=O)(=O)c1ccc(CCN(CCc2ccccc2)C(=O)c2ccc(-c3cssc3=S)cc2)cc1 [Compound 32, N-Phenethyl-N-(4-sulfamoylphenethyl)-4-(3-thioxo-3H-1,2-dithiol-4-yl)benzamide] |  |  |  | 34.9 | 5.3 |  |  | 462 | 69.6 |  | 18.0 | 2.7 | 228 to 229 °C
20 | N#CCCN(CCc1ccc(S(N)(=O)=O)cc1)C(=O)c1ccc(-c2cssc2=S)cc1 [Compound 33, N-(2-Cyanoethyl)-N-(4-sulfamoylphenethyl)-4-(3-thioxo-3H-1,2-dithiol-4-yl)benzamide] |  |  |  | 15.0 | 2.1 |  |  | 45.2 | 6.4 |  | 0.8 | 0.11 | 
